Source: patent US6509380B1, “Method of treating iron overload with acetaminophen” (Marshall University Research Corporation, priority 2001, dated 2003)

Tests used:
iron-overloaded gerbils = assay: Iron-overload model in Mongolian gerbils (iron dextran ip), treatment with acetaminophen; format: in vivo, Mongolian gerbil
Text: Female Mongolian gerbils were divided into groups: positive iron control (iron injections given), iron-treated (injections of iron and acetaminophen), negative iron controls (no iron given), and treatment controls (injections of the investigational agent, only). Gerbils designated to receive iron were iron overloaded by a series of intraperitoneal (ip) injections of iron dextran during a two-month period of time. Treatments were initiated one month after completion of iron overloading and continued for one additional month.
Electrocardiograms (ECGs) were done on gerbils in all four groups, two months and again three months after completion of iron overloading. Gerbils were autopsied five months after completion of iron overloading and resulting stained tissue slides were evaluated by light microscopy. Livers and whole hearts were obtained from gerbils in control and iron-overloaded groups and weighed. Whole hearts and weighed liver samples were acid digested and measured for total iron content.

[1] = Toxicity of acetaminophen in iron overloaded animals versus animals with normal iron levels; format: in vivo; conditions: multiple tests, no details given
Text: It was initially believed that acetaminophen would be more toxic in iron overloaded animals than in animals having normal iron levels.

CC(=O)Nc1ccc(O)cc1 [acetaminophen]
premature ventricular complexes (EKG findings) (iron-overloaded gerbils; ECGs two and three months after completion of iron overloading, four of 10 untreated iron-overloaded gerbils (40%) showed them): not in animals from the other three groups
iron-induced cardiac and hepatic hypertrophy (heart weights, heart/total body weight ratios, liver weights, liver/total body weight ratios) (iron-overloaded gerbils; autopsies, weight data and histological evaluations): effectively combats iron-induced cardiac and hepatic hypertrophy
reduction of cardiac iron (ICP-AES tissue iron measurement) (iron-overloaded gerbils; iron-overloaded female gerbils, versus untreated iron-overloaded animals, almost entirely from cardiomyocytes, less from cardiac macrophages, P<0.005): over 40%
reduction in liver iron (ICP-AES tissue iron measurement) (iron-overloaded gerbils; iron-overloaded female gerbils, versus untreated iron-overloaded animals, not statistically significant): 17%
accumulations of iron in the bone marrow, proximal renal tubules, heart and numerous other organs and tissues (iron-overloaded gerbils; stained tissue slides, light microscopy, less effect in the livers): greatly reduced accumulations of iron
deaths (iron-overloaded gerbils; within 5 months after iron overloading, eight of 20 untreated iron-overloaded gerbils died): No deaths
toxicity in animals having an iron overload compared with animals having normal iron levels [1]: less toxic in animals having an iron overload than in animals having normal iron levels
